Experimental data published in patent publication US4997757A, “Process for detecting potential carcinogens” (GeneBioMed, Inc., priority 1988, dated 1991).
Where two headings read alike, the source gives them in different places.

How the values were obtained:
mammalian cells [1] = settings: cited from earlier work
mice = settings: cited from earlier work
mammalian cells [2] = settings: cited from earlier work; remark: listed apart in the source
[3] = cited from earlier work; for carcinogenicity: in vivo
[4] = test system: strain RS112 (heteroalleles ade2-40 and ade2-101); assay: ICC (interchromosomal gene conversion) between heteroalleles ade2-40 and ade2-101; format: cell-based, Saccharomyces cerevisiae; settings: for ICC/10^5 cells: strain RS112
Description: (§1) It is preferred that, when the cells are to be grown in the presence of the agent, logarithmic phase cultures are used. In one embodiment, for each of the test strains, a cell suspension of 2×10^6 cells per milliliter-LEU medium be prepared from a logarithmic phase culture pregrown in liquid-LEU medium. The whole mix is aliquoted into portions of 5 milliliter into disposable plastic tubes in the presence of the agent to be tested, the tubes are sealed and shaken continuously for 17 hours.
(§2) The strain used in this example was RS112 which was obtained by crossing strain RSY6 with strain 428. RSY6 contains the SCC system and was deposited at November 30 under "ATCC designation number 20871" with the American Type Culture Collection of 12301 Parklawn Drive, Rockville, Md. 20852. Strain 428 was obtained from M. Snyder, Department of Biology, at Yale University, New Haven, Conn. and was used because it contains the mutation his3Δ-200, the construction of which has been described in an article by Struhl entitled "Naturally occurring poly(dA-dT) sequences are upstream promoter elements of constitutive transcription in yeast, published in Proc. Natl. Acad. Sci. USA 82 on pages 8419-8423. Strains containing the his3Δ-200 mutation are readily available to those skilled in the art.
Strain RS112 has the following genotype: [drawing 2]
Values for the intrachromosomal recombination system between deletion alleles of his3 are designated as SCC. Also strain RS112 contained heteroallelic mutations in ade2 so that the frequency of interchromosomal gene conversion (ICC) between heteroalleles in a diploid was determined. ICC was measured as recombination between the heteroalleles ade2-40 and ade2-101 by selecting for ADE+. Values obtained are given to compare the performance of the two systems.
The frequencies for ICC are given in events per 10^5 survivals, and the frequencies for SCC are given in events per 10^4 survivals. It has to be noted that for sister chromatid recombination in mammalian cells the increase even with potent carcinogens is usually less than ten fold and also slight increases have been taken as positive results. For instance an increase in frequency of two fold has been taken to be significant; see a publication by Rudiger et al. entitled "Metabolites of diethylstilbestrol induce sister chromatid exchange in human cultured fibroblasts." published in Nature 281:392-394).

[5] = test system: strain RS112 (his3 deletion alleles); assay: SCC (sister chromatid conversion) intrachromosomal recombination system, deletion alleles of his3; format: cell-based, Saccharomyces cerevisiae; settings: for SCC/10^4 cells: strain RS112
Excerpt: (§3) In the most preferred embodiment it is preferable to grow the cells in a medium which selects against the occurrence of the genome rearrangement to keep the control values as low as possible. In the embodiment described in FIG. 1 it is shown that the LEU2 gene of construct 10 is lost after the genome rearrangement which results in construct 22. Therefore cells containing construct 10, before the rearrangement are able to grow in the absence of leucine in the medium, but cells containing construct 22, after the genome rearrangement are not able to grow in the absence of leucine. After the genome rearrangement cells containing construct 22 are able to grow in the absence of histidine in the medium, but cells containing construct 10 before the genome rearrangement are not able to grow in the absence of histidine. Therefore the selection scheme which was used for Example 3 involves growth of the yeast culture in medium lacking leucine but containing histidine before and during the exposure to the potential carcinogens or other test agents. After the exposure the cells which have undergone genome rearrangement are selected on medium lacking histidine but containing leucine.
as §1
(§4) After the yeast cells have been exposed to both the agent to be tested and the selection medium under the conditions of the test and have been incubated for some time period of about more than one day preferably at 30 degrees Celsius or any other temperature which allows growth of the yeast cells used, the number of colonies formed by cells which have undergone genome rearrangement are counted and compared with the number of colonies of yeast cells identical in substantially every respect with the exception of not having been exposed to the suspected carcinogenic agent. The rates of genome rearrangement for both the control and experimental samples are then compared.
(§5) Plasmids were constructed as substrates to study intrachromosomal recombination; see an earlier part of the specification and Example 1. The plasmids pRS6 (FIG. 7, construct 108) and pRS11 (FIG. 9, construct 118) both contained an internal fragment of the HIS3 gene as well as one selectable marker (LEU2). pRS11 in addition contained the 2 μm origin of replication to select for the presence of the plasmid after plasmid excision. pRS11FRT-had the FLP recombination site disrupted (see Example 1). Yeast strains RSY6 containing construct 10, RSY11 containing construct 118 and RSY11FRT- (see Example 1) were used. They contained the respective pRS plasmids integrated into the HIS3 gene of strain S35/2-10C giving rise to disruptions of the HIS3 gene construct 10 or analogs to it (FIG. 10). The two resulting his3 deletion alleles (FIG. 10) shared about 400 basepairs of homology and thus could interact with each other by homologous recombination. Reversion of his- to HIS+ occurred at a frequency of about 4×10^-4 in all three strains. All of 100 tested HIS+ revertants of strain RSY6 were leu-. Because of this observation strains used for recombination studies were always pregrown on -LEU medium to prevent growth of HIS+ revertants. Therefore the frequency of HIS+ revertants is a measure of the recombination rate.
(§6) The strain used in this example was RS112 which was obtained by crossing strain RSY6 with strain 428. RSY6 contains the SCC system and was deposited at November 30 under "ATCC designation number 20871" with the American Type Culture Collection of 12301 Parklawn Drive, Rockville, Md. 20852. […]

Salmonella typhimurium = settings: cited from earlier work
[6] = survival of yeast exposed to agent; format: cell-based, Saccharomyces cerevisiae
Excerpt: (§7) It is preferred to conduct a preliminary experiment to determine those concentrations of the agent to be tested which should be evaluated in the main experiment. Yeast cells are exposed to a wide range of concentrations of the agent to be tested to determine its cytotoxicity.
as §1, §2

[7] = SCC (sister chromatid conversion) intrachromosomal recombination system, deletion alleles of his3; format: cell-based, Saccharomyces cerevisiae; settings: yeast strain rs112; versus untreated control; read-out: induction for SCC / increase in SCC
Excerpt: as §3, §1, §4, §5, §6

strain RS112 = assay: survival of yeast exposed to agent; format: cell-based, Saccharomyces cerevisiae; settings: 1020 min
Excerpt: as §7, §1, §2

rats = settings: cited from earlier work

## CCOC(N)=O [Urethane]
Mammalian cells [1]
  chromosomal aberration assay result: negative
mice
  carcinogenicity: very effective in producing lung as well as skin tumors in mice
Mammalian cells [2]
  SCE assay result: negative
[3]
  carcinogenicity: known carcinogens
[4]; 10 mg/ml
  ICC/10^5 cells: 0.66 /10^5 cells
[4]; 20 mg/ml
  ICC/10^5 cells: 0.40 /10^5 cells
[4]; 40 mg/ml
  ICC/10^5 cells: 0.78 /10^5 cells
[5]; 10 mg/ml
  SCC/10^4 cells: 1.9 /10^4 cells
[5]; 20 mg/ml
  SCC/10^4 cells: 4.8 /10^4 cells
[5]; 40 mg/ml
  SCC/10^4 cells: 5.3 /10^4 cells
Salmonella typhimurium
  Ames Assay result: negative
[6]; yeast strain rs112, 10 mg/ml
  viability at 17 h: 107%
[6]; yeast strain rs112, 20 mg/ml
  viability at 17 h: 51%
[6]; yeast strain rs112, 40 mg/ml
  viability at 17 h: 10%

## O=[N+]([O-])c1cc[n+]([O-])c2ccccc12 [NQO, 4-nitroquinoline-N-oxide]
[4]
  ICC result in words: inducible
[4]; 0.1 μg/ml
  ICC/10^5 cells: 57.4 /10^5 cells
[4]; 0.5 μg/ml
  ICC/10^5 cells: 93 /10^5 cells
[4]; 2 μg/ml
  ICC/10^5 cells: 106 /10^5 cells
[5]
  SCC result in words: inducible
[5]; 0.1 μg/ml
  SCC/10^4 cells: 16.9 /10^4 cells
[5]; 0.5 μg/ml
  SCC/10^4 cells: 19.0 /10^4 cells
[5]; 2 μg/ml
  SCC/10^4 cells: 55.6 /10^4 cells
[7]
  fold induction: 20 to 150
[6]; yeast strain rs112, 0.1 μg/ml
  viability at 17 h: 84%
[6]; yeast strain rs112, 0.5 μg/ml
  viability at 17 h: 74%
[6]; yeast strain rs112, 2 μg/ml
  viability at 17 h: 13.3%

## COS(C)(=O)=O [MMS, methyl methane sulphonate]
[4]
  ICC result in words: inducible
[4]; 0.001 %
  ICC/10^5 cells: 1.9 /10^5 cells
[4]; 0.005 %
  ICC/10^5 cells: 14.4 /10^5 cells
[4]; 0.01 %
  ICC/10^5 cells: 42.3 /10^5 cells
[4]; 0.02 %
  ICC/10^5 cells: 62 /10^5 cells
[5]
  SCC result in words: inducible
[5]; 0.001 %
  SCC/10^4 cells: 3.9 /10^4 cells
[5]; 0.005 %
  SCC/10^4 cells: 11.4 /10^4 cells
[5]; 0.01 %
  SCC/10^4 cells: 46.6 /10^4 cells
[5]; 0.02 %
  SCC/10^4 cells: 129 /10^4 cells
[7]
  fold induction: 20 to 150
[6]; yeast strain rs112, 0.001 %
  viability at 17 h: 100%
[6]; yeast strain rs112, 0.005 %
  viability at 17 h: 97%
[6]; yeast strain rs112, 0.01 %
  viability at 17 h: 87%
[6]; yeast strain rs112, 0.02 %
  viability at 17 h: 35%

## Cc1c(N)c(=O)n(-c2ccccc2)n1C [Aminoantipyrine]
Mammalian cells [1]
  chromosomal aberration assay result: negative
mice
  carcinogenicity: bladder carcinogen
Mammalian cells [2]
  SCE assay result: negative
[3]
  carcinogenicity: known carcinogens
[4]; 10 mg/ml
  ICC/10^5 cells: 0.75 /10^5 cells
[4]; 20 mg/ml
  ICC/10^5 cells: 1.8 /10^5 cells
[5]; 10 mg/ml
  SCC/10^4 cells: 1.02 /10^4 cells
[5]; 20 mg/ml
  SCC/10^4 cells: 1.80 /10^4 cells
[5]; 40 mg/ml
  SCC/10^4 cells: 25.8 /10^4 cells
Salmonella typhimurium
  Ames Assay result: negative
Strain RS112; 10 mg/ml
  survival: 97%
Strain RS112; 20 mg/ml
  survival: 73.3%
Strain RS112; 40 mg/ml
  survival: 0.89%

## C=O [Formaldehyde]
[3]
  carcinogenicity: known carcinogen
[3]; proposed
  tumor promotion: proposed to act as tumor promoter
[4]
  ICC result in words: induces ICC
[4]; 0.015 mg/ml
  ICC/10^5 cells: 2.5 /10^5 cells
[4]; 0.03 mg/ml
  ICC/10^5 cells: 2.1 /10^5 cells
[4]; 0.05 mg/ml
  ICC/10^5 cells: 5.4 /10^5 cells
[4]; 0.07 mg/ml
  ICC/10^5 cells: 7.1 /10^5 cells
rats
  carcinogenicity: causes nasal cancer in rats
[5]
  SCC result in words: test positive
[5]; 0.015 mg/ml
  SCC/10^4 cells: 3.8 /10^4 cells
[5]; 0.03 mg/ml
  SCC/10^4 cells: 7.3 /10^4 cells
[5]; 0.05 mg/ml
  SCC/10^4 cells: 29.5 /10^4 cells
[5]; 0.07 mg/ml
  SCC/10^4 cells: 40.0 /10^4 cells
[7]
  fold induction: ~20
Salmonella typhimurium
  Ames Assay result: negative
[6]; yeast strain rs112, 0.015 mg/ml
  viability at 17 h: 97%
[6]; yeast strain rs112, 0.03 mg/ml
  viability at 17 h: 53%
[6]; yeast strain rs112, 0.05 mg/ml
  viability at 17 h: 4.2%
[6]; yeast strain rs112, 0.07 mg/ml
  viability at 17 h: 2.2%

## CCOS(C)(=O)=O [EMS, ethyl methanesulphonate]
[4]
  ICC result in words: inducible
[4]; 0.02 %
  ICC/10^5 cells: 1.3 /10^5 cells
[4]; 0.1 %
  ICC/10^5 cells: 15.8 /10^5 cells
[4]; 0.2 %
  ICC/10^5 cells: 28.9 /10^5 cells
[5]
  SCC result in words: inducible
[5]; 0.02 %
  SCC/10^4 cells: 4.1 /10^4 cells
[5]; 0.1 %
  SCC/10^4 cells: 18.1 /10^4 cells
[5]; 0.2 %
  SCC/10^4 cells: 25.3 /10^4 cells
[7]
  fold induction: 20 to 150
[6]; yeast strain rs112, 0.02 %
  viability at 17 h: 98%
[6]; yeast strain rs112, 0.1 %
  viability at 17 h: 91%
[6]; yeast strain rs112, 0.2 %
  viability at 17 h: 37%

## C=CCc1ccc(O)c(OC)c1 [eugenol]
[5]
  SCC result in words: test positive

## CCSCC[C@H](N)C(=O)O [Ethionine]
Mammalian cells [1]
  chromosomal aberration assay result: negative
Mammalian cells [2]
  SCE assay result: negative
[3]
  carcinogenicity: liver carcinogen
[3]; listed as ethionine
  carcinogenicity: known carcinogens
[4]; 10 mg/ml
  ICC/10^5 cells: 0.77 /10^5 cells
[4]; 20 mg/ml
  ICC/10^5 cells: 0.80 /10^5 cells
[5]; 10 mg/ml
  SCC/10^4 cells: 4.8 /10^4 cells
[5]; 20 mg/ml
  SCC/10^4 cells: 5.4 /10^4 cells
Salmonella typhimurium
  Ames Assay result: negative
[6]; yeast strain rs112, 10 mg/ml
  viability at 17 h: 79%
[6]; yeast strain rs112, 20 mg/ml
  viability at 17 h: 67%
